Data reported in patent publication US9586928B2 (The Scripps Research Institute, priority 2011, dated 2017).
Blank lines part the entries; values can stand above or below the molecule they belong to.

How the values were obtained:
RORα = biological target: T1, RORα (Homo sapiens, UniProt P35398); experiment: Gal4-RORα LBD / UAS luciferase cotransfection assay; format: cell-based; settings: 10 μM
T1 construct: expressed in transfected cells; host or cells: HEK293T
T1 sequence (P35398 272-510 limits assumed): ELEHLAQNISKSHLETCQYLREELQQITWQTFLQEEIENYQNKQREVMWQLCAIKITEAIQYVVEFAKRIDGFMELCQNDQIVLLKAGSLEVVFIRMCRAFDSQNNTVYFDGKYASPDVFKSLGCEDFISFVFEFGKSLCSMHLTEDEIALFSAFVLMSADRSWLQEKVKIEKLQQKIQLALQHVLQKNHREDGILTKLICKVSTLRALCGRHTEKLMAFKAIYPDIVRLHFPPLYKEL

RORγ = biological target: T2, RORγ (Homo sapiens, UniProt P51449); experiment: Gal4-RORγ LBD / UAS luciferase cotransfection assay; format: cell-based; settings: 10 μM
T2 construct: expressed in transfected cells; host or cells: HEK293T
T2 sequence (P51449 269-508 limits assumed): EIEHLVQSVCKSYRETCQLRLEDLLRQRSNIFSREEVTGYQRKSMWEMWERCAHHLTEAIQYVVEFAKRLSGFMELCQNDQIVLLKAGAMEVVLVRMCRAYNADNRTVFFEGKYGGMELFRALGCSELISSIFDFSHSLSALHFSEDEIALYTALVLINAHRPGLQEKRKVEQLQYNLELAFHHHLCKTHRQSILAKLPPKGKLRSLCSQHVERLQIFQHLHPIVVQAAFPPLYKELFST

VP16 = experiment: Gal4 DBD-VP16 / UAS luciferase control assay; format: cell-based; settings: 10 μM
LXR = biological target: T3, LXR (Homo sapiens, UniProt Q13133); experiment: Gal4-LXRα / UAS luciferase cotransfection assay; format: cell-based; settings: 10 μM
T3 sequence (Q13133 209-447 limits assumed): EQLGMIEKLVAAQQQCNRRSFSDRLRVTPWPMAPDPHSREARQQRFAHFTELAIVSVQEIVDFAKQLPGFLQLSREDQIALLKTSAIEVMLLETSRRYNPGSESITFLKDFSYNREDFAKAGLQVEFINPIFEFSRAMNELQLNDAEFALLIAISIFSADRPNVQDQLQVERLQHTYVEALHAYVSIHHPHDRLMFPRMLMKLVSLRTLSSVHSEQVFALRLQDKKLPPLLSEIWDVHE

GST-RORγ = biological target: T4, GST-RORγ (Homo sapiens, UniProt P51449); experiment: RORγ scintillation proximity (SPA) radioligand binding assay, displacement of [3H]-T0901317; settings: 1 μM compound (Table 2D); read-out: RORγ SPA % bound = % radiolabel bound
T4 construct: 1 μg of GST-RORγ-LBD, 5 nM of [3H]T1317 as radioligand
T4 sequence (P51449 269-508 limits assumed): T2 sequence (P51449 269-508 limits assumed)

Structure (SMILES): OCCN1CCN(Cc2ccc(-c3ccc(C(O)(C(F)(F)F)C(F)(F)F)cc3)cc2)CC1 [Compound 2, 1,1,1,3,3,3-Hexafluoro-2-(4′-((4-(2-hydroxyethyl)piperazin-1-yl)methyl)-[1,1′-biphenyl]-4-yl)propan-2-ol]
RORα repression, fold change over DMSO (RORα): 1.3 fold change over DMSO | RORγ repression, fold change over DMSO (RORγ): 0.9 fold change over DMSO | VP16 repression, fold change over DMSO (VP16): 0.9 fold change over DMSO | LXR activation, fold change over DMSO (LXR): 1.1 fold change over DMSO

Structure (SMILES): OC(c1ccc(-c2ccc(CN3CCN(CCc4ccccc4)CC3)cc2)cc1)(C(F)(F)F)C(F)(F)F [Compound 11, 1,1,1,3,3,3-Hexafluoro-2-(4′-((4-phenethylpiperazin-1-yl)methyl)-[1,1′-biphenyl]-4-yl)propan-2-ol]
RORα repression, fold change over DMSO (RORα): 0.5 fold change over DMSO | RORγ repression, fold change over DMSO (RORγ): 0.5 fold change over DMSO | VP16 repression, fold change over DMSO (VP16): 0.35 fold change over DMSO | LXR activation, fold change over DMSO (LXR): 1 fold change over DMSO

Structure (SMILES): OC(c1ccc(-c2ccc(CN3CCN(c4ccccc4)CC3)cc2)cc1)(C(F)(F)F)C(F)(F)F [Compound 14, 1,1,1,3,3,3-Hexafluoro-2-(4′-((4-phenylpiperazin-1-yl)methyl)-[1,1′-biphenyl]-4-yl)propan-2-ol]
RORα repression, fold change over DMSO (RORα): 0.4 fold change over DMSO | RORγ repression, fold change over DMSO (RORγ): 0.05 fold change over DMSO | VP16 repression, fold change over DMSO (VP16): 0.4 fold change over DMSO | LXR activation, fold change over DMSO (LXR): 5 fold change over DMSO

Structure (SMILES): O=C(C1CCCO1)N1CCN(Cc2ccc(-c3ccc(C(O)(C(F)(F)F)C(F)(F)F)cc3)cc2)CC1 (stereo not shown) [Compound 16, (4-((4′-(1,1,1,3,3,3-Hexafluoro-2-hydroxypropan-2-yl)-[1,1′-biphenyl]-4-yl)methyl)piperazin-1-yl)(tetrahydrofuran-2-yl)methanone]
RORα repression, fold change over DMSO (RORα): 0.8 fold change over DMSO | RORγ repression, fold change over DMSO (RORγ): 0.6 fold change over DMSO | VP16 repression, fold change over DMSO (VP16): 0.6 fold change over DMSO | LXR activation, fold change over DMSO (LXR): 1.4 fold change over DMSO

Structure (SMILES): OC(c1ccc(-c2ccc(CN3CCN(Cc4cccs4)CC3)cc2)cc1)(C(F)(F)F)C(F)(F)F [Compound 19, 1,1,1,3,3,3-Hexafluoro-2-(4′-((4-(thiophen-2-ylmethyl)piperazin-1-yl)methyl)-[1,1′-biphenyl]-4-yl)propan-2-ol]
RORα repression, fold change over DMSO (RORα): 0.75 fold change over DMSO | RORγ repression, fold change over DMSO (RORγ): 0.5 fold change over DMSO | VP16 repression, fold change over DMSO (VP16): 0.4 fold change over DMSO | LXR activation, fold change over DMSO (LXR): 1.5 fold change over DMSO

Structure (SMILES): OC(c1ccc(-c2ccc(CN3CCN(Cc4cc5cc(F)ccc5[nH]4)CC3)cc2)cc1)(C(F)(F)F)C(F)(F)F [Compound 20, 1,1,1,3,3,3-Hexafluoro-2-(4′-((4-((5-fluoro-1H-indol-2-yl)methyl)piperazin-1-yl)methyl)-[1,1′-biphenyl]-4-yl)propan-2-ol]
RORα repression, fold change over DMSO (RORα): 0.1 fold change over DMSO | RORγ repression, fold change over DMSO (RORγ): 0.05 fold change over DMSO | VP16 repression, fold change over DMSO (VP16): 0.1 fold change over DMSO | LXR activation, fold change over DMSO (LXR): 2.5 fold change over DMSO

Structure (SMILES): OC(c1ccc(-c2ccc(CN3CCN(CC4COc5ccccc5O4)CC3)cc2)cc1)(C(F)(F)F)C(F)(F)F (stereo not shown) [Compound 21, 2-(4′-((4-((2,3-Dihydrobenzo[b][1,4]dioxin-2-yl)methyl)piperazin-1-yl)methyl)-[1,1′-biphenyl]-4-yl)-1,1,1,3,3,3-hexafluoropropan-2-ol]
RORα repression, fold change over DMSO (RORα): 0.45 fold change over DMSO | RORγ repression, fold change over DMSO (RORγ): 0.35 fold change over DMSO | VP16 repression, fold change over DMSO (VP16): 0.35 fold change over DMSO | LXR activation, fold change over DMSO (LXR): 0.7 fold change over DMSO

Structure (SMILES): CCCNC(=O)N1CCN(Cc2ccc(-c3ccc(C(O)(C(F)(F)F)C(F)(F)F)cc3)cc2)CC1 [Compound 22, 4-((4′-(1,1,1,3,3,3-Hexafluoro-2-hydroxypropan-2-yl)-[1,1′-biphenyl]-4-yl)methyl)-N-propylpiperazine-1-carboxamide]
RORα repression, fold change over DMSO (RORα): 0.5 fold change over DMSO | RORγ repression, fold change over DMSO (RORγ): 0.4 fold change over DMSO | VP16 repression, fold change over DMSO (VP16): 0.4 fold change over DMSO | LXR activation, fold change over DMSO (LXR): 1.8 fold change over DMSO

Structure (SMILES): O=C(Nc1ccccc1)N1CCN(Cc2ccc(-c3ccc(C(O)(C(F)(F)F)C(F)(F)F)cc3)cc2)CC1 [Compound 23, 4-((4′-(1,1,1,3,3,3-Hexafluoro-2-hydroxypropan-2-yl)-[1,1′-biphenyl]-4-yl)methyl)-N-phenylpiperazine-1-carboxamide]
RORα repression, fold change over DMSO (RORα): 0.9 fold change over DMSO | RORγ repression, fold change over DMSO (RORγ): 0.5 fold change over DMSO | VP16 repression, fold change over DMSO (VP16): 0.55 fold change over DMSO | LXR activation, fold change over DMSO (LXR): 2 fold change over DMSO

Structure (SMILES): O=C(NCc1ccccc1)N1CCN(Cc2ccc(-c3ccc(C(O)(C(F)(F)F)C(F)(F)F)cc3)cc2)CC1 [Compound 24, N-Benzyl-4-((4′-(1,1,1,3,3,3-hexafluoro-2-hydroxypropan-2-yl)-[1,1′-biphenyl]-4-yl)methyl)piperazine-1-carboxamide]
RORα repression, fold change over DMSO (RORα): 0.5 fold change over DMSO | RORγ repression, fold change over DMSO (RORγ): 0.25 fold change over DMSO | VP16 repression, fold change over DMSO (VP16): 0.25 fold change over DMSO | LXR activation, fold change over DMSO (LXR): 1.3 fold change over DMSO

Structure (SMILES): CCC(=O)N1CCN(Cc2ccc(-c3ccc(C(O)(C(F)(F)F)C(F)(F)F)cc3)cc2)CC1 [Compound 25, 1-(4-((4′-(1,1,1,3,3,3-Hexafluoro-2-hydroxypropan-2-yl)-[1,1′-biphenyl]-4-yl)methyl)piperazin-1-yl)propan-1-one]
RORα repression, fold change over DMSO (RORα): 0.7 fold change over DMSO | RORγ repression, fold change over DMSO (RORγ): 0.45 fold change over DMSO | VP16 repression, fold change over DMSO (VP16): 0.5 fold change over DMSO | LXR activation, fold change over DMSO (LXR): 1 fold change over DMSO

Structure (SMILES): O=C(c1ccccc1)N1CCN(Cc2ccc(-c3ccc(C(O)(C(F)(F)F)C(F)(F)F)cc3)cc2)CC1 [Compound 26, (4-((4′-(1,1,1,3,3,3-Hexafluoro-2-hydroxypropan-2-yl)-[1,1′-biphenyl]-4-yl)methyl)piperazin-1-yl)(phenyl)methanone]
RORα repression, fold change over DMSO (RORα): 0.9 fold change over DMSO | RORγ repression, fold change over DMSO (RORγ): 0.8 fold change over DMSO | VP16 repression, fold change over DMSO (VP16): 0.7 fold change over DMSO | LXR activation, fold change over DMSO (LXR): 2 fold change over DMSO

remaining activity at 1 µM (GST-RORγ): 10%
Structure (SMILES): CCCCC(=O)N1CCN(Cc2ccc(-c3ccc(C(O)(C(F)(F)F)C(F)(F)F)cc3)cc2)CC1 [Example 158, 1-(4-((4′-(1,1,1,3,3,3-hexafluoro-2-hydroxypropan-2-yl)-[1,1′-biphenyl]-4-yl)methyl)piperazin-1-yl)pentan-1-one]

Structure (SMILES): O=C(Cc1c[nH]cn1)N1CCN(Cc2ccc(-c3ccc(C(O)(C(F)(F)F)C(F)(F)F)cc3)cc2)CC1 [Example 159, 1-(4-((4′-(1,1,1,3,3,3-hexafluoro-2-hydroxypropan-2-yl)-[1,1′-biphenyl]-4-yl)methyl)piperazin-1-yl)-2-(1H-imidazol-4-yl)ethanone]
remaining activity at 1 µM (GST-RORγ): 80%

remaining activity at 1 µM (GST-RORγ): 77%
Structure (SMILES): OC(c1ccc(-c2ccc(CN3CCN(Cc4ccncc4)CC3)cc2C(F)(F)F)cc1)(C(F)(F)F)C(F)(F)F [Example 160, 1,1,1,33,33-hexafluoro-2-(4′-((4-(pyridin-4-ylmethyl)piperazin-1-yl)methyl)-2′-(trifluoromethyl)-[1,1′-biphenyl]-4-yl)propan-2-ol]

remaining activity at 1 µM (GST-RORγ): 95%
Structure (SMILES): N#Cc1cc(-c2ccc(C(O)(C(F)(F)F)C(F)(F)F)cc2)ccc1CN1CCN(Cc2ccncc2)CC1 [Example 161, 4′-(1,1,1,3,3,3-hexafluoro-2-hydroxypropan-2-yl)-4-((4-(pyridin-4-ylmethyl)piperazin-1-yl)methyl)-[1,1′-biphenyl]-3-carbonitrile]

Structure (SMILES): OC(c1ccc(-c2ccc3c(c2)CCN3C2CCN(Cc3ccncc3)CC2)cc1)(C(F)(F)F)C(F)(F)F [Example 162, 1,1,1,3,3,3-hexafluoro-2-(4-(1-(1-(pyridin-4-ylmethyl)piperidin-4-yl)indolin-5-yl)phenyl)propan-2-ol]
remaining activity at 1 µM (GST-RORγ): 15%

remaining activity at 1 µM (GST-RORγ): 10%
Structure (SMILES): OC(c1ccc(-c2cccc(CC3CCCN(Cc4ccncc4)C3)c2)cc1)(C(F)(F)F)C(F)(F)F (stereo not shown) [Example 163, 1,1,1,3,3,3-hexafluoro-2-(3′-((1-(pyridin-4-ylmethyl)piperidin-3-yl)methyl)-[1,1′-biphenyl]-4-yl)propan-2-ol]

remaining activity at 1 µM (GST-RORγ): 10%
Structure (SMILES): OC(c1ccc(-c2ccc(CC3CCN(Cc4ccncc4)CC3)cc2)cc1)(C(F)(F)F)C(F)(F)F [Example 164, 1,1,1,3,3,3-hexafluoro-2-(4′-((1-(pyridin-4-ylmethyl)piperidin-4-yl)methyl)-[1,1′-biphenyl]-4-yl)propan-2-ol]
